Experimental data taken from US7462598B2, “Antimicrobial theta defensins, analogs thereof, and methods of use” (priority 2002, dated 2008).
Bridge positions count the residues as written; N and C are the ends. Square brackets hold non-standard residues; d marks the D form. Peptide text beside a SMILES is read from it. hSer = N[C@@H](CCO)C(=O)O

Assays:
E. coli ML35 [1] = test: Membrane permeabilization assay (ONPG hydrolysis); type: cell-based, Escherichia coli; conditions: for ONPG hydrolysis: rates at 1 μg/ml concentration of each peptide
In short: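 ONPG hydrolysis by log-phase E. coli ML35 (1×10^6 CFU/ml) in 10 mM PIPES pH 7.4 with 3 mM ONPG, peptides at 0-8.0 μg/ml final; A405 followed for 60 min. Control: 0-4 μg/ml peptide incubated with recombinant β-galactosidase and 3 mM ONPG.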

S. aureus 502a [2] = test: Cell-suspension microbicidal assay (MMC); type: cell-based, Staphylococcus aureus; conditions: for MMC, S. aureus: lowest concentration that reduced cell viability by 99.9%, 10 mM PIPES, 5 mM glucose, pH 7.4, 2 h 37° C.
In short: (§1)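 Log-phase microbes (2×10^6 CFU/ml) exposed to two-fold peptide dilutions (0.062-8.0 μg/ml) in 10 mM PIPES, 5 mM glucose, pH 7.4, 2 h at 37 °C, then diluted 1:10 to 1:10^6 in broth and grown 24-48 h. MMC is the lowest concentration giving ≥99.9% killing (no pellet at 1:10^3).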

[3] = target: T1, recombinant β-galactosidase (Escherichia coli, UniProt P00722); test: Inhibition of purified β-galactosidase (ONPG hydrolysis); type: biochemical
T1 construct: gift from Dr. Donald P. Satchell, University of California, Irvine, Department of Pathology
Description: Dose-dependent rates of ONPG hydrolysis were determined using 10 nM of purified β-galactosidase.
The effect of each peptide on β-galactosidase-dependent ONPG hydrolysis was determined by incubating 0-4 μg/ml of each peptide with recombinant β-galactosidase (a gift from Dr. Donald P. Satchell, University of California, Irvine, Department of Pathology) and 3 mM ONPG as described above.

C. albicans 16820 = test: Cell-suspension microbicidal assay (MMC); type: cell-based, Candida albicans; conditions: for MMC, C. albicans: lowest concentration that reduced cell viability by 99.9%, 10 mM PIPES, 5 mM glucose, pH 7.4, 2 h 37° C.
In short: as §1

[4] = tested on: S. aureus 502a, E. coli ML35, and C. albicans 16820; test: Cell-suspension microbicidal assay, statements across the test organisms (lowest MMC, overall ranges); type: cell-based; conditions: for M: peptide concentration that kill 99.9% of either S. aureus, E. coli, or C. albicans, lowest MMC value
In short: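 Log-phase organisms (2×10^6 CFU/ml) were exposed for 2 h at 37° C. to peptide (0.062–8.0 μg/ml final) in 10 mM PIPES/5 mM glucose, pH 7.4, then serially diluted in broth and grown 24–48 h. MMC was defined as ≥99.9% killing (no pellet at 1:10^3). SI was calculated as concentration giving 3% hemolysis in PBS divided by lowest MMC.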

E. coli ML35 [5] = test: Cell-suspension microbicidal assay (MMC); type: cell-based, Escherichia coli; conditions: for MMC, E. coli: lowest concentration that reduced cell viability by 99.9%, 10 mM PIPES, 5 mM glucose, pH 7.4, 2 h 37° C.
In short: as §1

S. aureus 502a [6] = type: cell-based, Staphylococcus aureus; conditions: 502a
Description: Dose-dependent staphylocidal activity of each peptide was determined in assays containing 10% normal human serum. Percentages of killing are relative to activities of peptide-containing incubations in which serum was omitted.
(§2) To determine the effects of serum, salt, calcium chloride and magnesium chloride on microbicidal activities, peptide activities were determined in assays containing varying ionic strength, divalent cations, and serum. The effect of serum on staphylocidal activity of each peptide was determined by incubating 1×10^6 CFU/ml of S. aureus 502a with increasing peptide concentrations (0.5-4 μg/ml) in 10 mM PIPES, pH 7.4, containing 10% normal human serum for 2 h at 37° C. The effect of sodium chloride on staphylocidal activities was assessed with 5 μg/ml of each peptide in 10 mM PIPES, pH 7.4, containing varying concentrations of sodium chloride (0-160 mM). Effects of divalent cations, CaCl2, or MgCl2 (0-5.6 mM) were assessed in microbicidal assays against E. coli ML35. Bactericidal activities were determined by colony counting (see Example II), and microbicidal potencies were expressed as percent killing as follows:
(§3) [formula] where A=surviving bacteria (CFU/ml) after initial incubation with each peptide in buffer containing serum, salt, or divalent cations and Ao=bacterial CFU/ml in the “no-peptide” controls.

E. coli ML35 [7] = test: Bactericidal activity in divalent cations (CaCl2, MgCl2); type: cell-based, Escherichia coli
Description: as §2, §3

[8] = tested on: S. aureus 502a, E. coli ML35, C. albicans 16820, and C. neoformans 271a; test: Agar diffusion assay, statements across the test organisms; type: cell-based; conditions: against E. coli, FIG. 18A-D
Description: Briefly, 10-μl wells were bored in a 9-cm^2 plate of agarose, buffered with 10 mM 1,4-piperazinebis(ethanesulfonic acid) (PIPES), pH 7.4, containing 5 mM glucose, and seeded with 1×10^6 mid-log phase cells. Five-μl aliquots of peptides, dissolved in 0.01% HOAc at 10-300 μg/ml, were added to each well. After incubation at 37° C. for 2 h, the seeded agar was overlaid with molten agarose containing 6% trypticase soy broth (for bacteria) or Sabouraud dextrose broth (for fungi). Plates were incubated at 37° C. for 18-24 h, and antimicrobial activity was determined by measuring the diameter of clearing around each well.

S. aureus 502a [9] = type: cell-based, Staphylococcus aureus; conditions: physiologic salt / various concentrations of salt; FIG. 6
Description: The activity of each peptide (5 μg/ml) was determined in assays containing increasing concentrations of sodium chloride. Staphylocidal activities were expressed as percentages of killing obtained in the absence of additional NaCl.
as §2, §3

T1 sequence (P00722 2-1024): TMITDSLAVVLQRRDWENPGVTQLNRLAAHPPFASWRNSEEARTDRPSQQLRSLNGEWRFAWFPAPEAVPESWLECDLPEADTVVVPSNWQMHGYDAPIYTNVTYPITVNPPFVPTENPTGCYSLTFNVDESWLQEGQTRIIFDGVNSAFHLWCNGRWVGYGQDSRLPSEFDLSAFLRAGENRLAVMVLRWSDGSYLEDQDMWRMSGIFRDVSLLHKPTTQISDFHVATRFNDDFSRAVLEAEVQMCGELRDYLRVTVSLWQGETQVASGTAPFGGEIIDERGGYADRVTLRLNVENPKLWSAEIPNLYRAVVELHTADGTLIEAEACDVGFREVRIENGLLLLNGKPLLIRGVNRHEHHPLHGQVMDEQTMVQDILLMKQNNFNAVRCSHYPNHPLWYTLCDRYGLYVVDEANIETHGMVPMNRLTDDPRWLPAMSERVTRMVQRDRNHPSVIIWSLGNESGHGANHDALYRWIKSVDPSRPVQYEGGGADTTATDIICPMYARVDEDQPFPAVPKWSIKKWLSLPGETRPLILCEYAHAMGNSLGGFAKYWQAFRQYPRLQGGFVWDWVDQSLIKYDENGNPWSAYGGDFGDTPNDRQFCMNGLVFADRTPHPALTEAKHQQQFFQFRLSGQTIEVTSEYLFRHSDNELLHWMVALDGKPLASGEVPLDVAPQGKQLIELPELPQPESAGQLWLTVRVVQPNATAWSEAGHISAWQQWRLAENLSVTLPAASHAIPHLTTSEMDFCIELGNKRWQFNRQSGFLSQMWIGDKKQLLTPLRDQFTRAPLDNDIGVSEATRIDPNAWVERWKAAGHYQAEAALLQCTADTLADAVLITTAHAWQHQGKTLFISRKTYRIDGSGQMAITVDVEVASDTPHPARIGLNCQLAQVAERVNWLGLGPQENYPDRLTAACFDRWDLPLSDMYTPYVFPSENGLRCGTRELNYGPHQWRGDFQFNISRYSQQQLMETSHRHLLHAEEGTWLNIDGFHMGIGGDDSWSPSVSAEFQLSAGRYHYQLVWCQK

SMILES | ONPG hydrolysis (E. coli ML35 [1]) | MMC, S. aureus (S. aureus 502a [2]) [µg/mL] | MMC, C. albicans (C. albicans 16820) [µg/mL] | M [4] [µg/mL] | MMC, E. coli (E. coli ML35 [5]) [µg/mL] | antimicrobial activity compared with synthetic / native RTD-1 [8] | further results
CC(C)[C@@H]1NC(=O)[C@@H]2CSSC[C@H](NC(=O)[C@H](CCCNC(=N)N)NC(=O)[C@@H](NC(=O)CNC(=O)CN)CSSC[C@@H](C(=O)N[C@@H](CCCNC(=N)N)C(=O)N[C@@H](CCCNC(=N)N)C(N)=O)NC1=O)C(=O)N[C@@H](Cc1ccc(O)cc1)C(=O)N[C@H]1CSSC[C@H](NC(=O)[C@H](Cc3ccccc3)NC(=O)[C@H](CCCNC(=N)N)NC(=O)[C@H](CCCNC(=N)N)NC(=O)[C@H](CCCNC(=N)N)NC1=O)C(=O)N[C@@H](C(C)C)C(=O)N2 [3cys 2:2 PG-1-NH] (H-GGCRCYCRRRFCVCVCRR-NH2; disulfide 3-16, 5-14, 7-12; N-terminus assumed) | 15.3 (A405/sec) · 10^−5 | 0.3 | 1.5 | 0.25 | 1.0 | – | fold higher activity against S. aureus than 3cys 3:1 PG-1-NH (S. aureus 502a [2]; from MMC, Table 2): 6-7 fold; inhibition of β-galactosidase activity ([3]; peptide 0-4 μg/ml, concentration not given, FIG. 10): potent inhibitor; fold higher activity against C. albicans than 3cys 3:1 PG-1-NH (C. albicans 16820; from MMC, Table 2): 2-3 fold
CC(C)C[C@H](NC(=O)[C@@H]1CSSC[C@H](NC(=O)[C@H](CCCNC(=N)N)NC(=O)[C@H](C)NC(=O)[C@@H](NC(=O)CNC(=O)[C@@H](N)CCCNC(=N)N)C(C)C)C(=O)N[C@@H](CC(C)C)C(=O)N[C@H]2CSSC[C@H](NC(=O)[C@H](C(C)C)NC(=O)CNC(=O)[C@H](CCCNC(=N)N)NC(=O)[C@H](CCCNC(=N)N)NC2=O)C(=O)N[C@@H](CCCNC(=N)N)C(=O)N1)C(=O)N[C@@H](C)C(=O)N[C@@H](CCCNC(=N)N)C(N)=O [5:3 aRTD-3-NH] (H-RGVARCLCRRGVCRCLAR-NH2; disulfide 6-15, 8-13; N-terminus assumed) | 3.9 (A405/sec) · 10^−5 | 1.0 | 2.3 | 1 | – | – | inhibition of bactericidal activity in serum (S. aureus 502a [6]): 20-50%; fold lower activity against C. albicans than RTD-3 and PG-1 (C. albicans 16820; from MMC, Table 2): 2-3 fold; effect of divalent cations on bactericidal activity (in words) (E. coli ML35 [7]; various concentrations of divalent cations): completely inhibited; fold lower activity against E. coli than RTD-3 and PG-1 (E. coli ML35 [5]; from MMC, Table 2): 2-3 fold
CC[C@H](C)[C@@H]1NC(=O)[C@@H]2CSSC[C@H](NC(=O)[C@H](CCCNC(=N)N)NC(=O)[C@@H]3CSSC[C@H](NC1=O)C(=O)N[C@@H]([C@@H](C)O)C(=O)N[C@@H](CCCNC(=N)N)C(=O)NCC(=O)N[C@@H](Cc1ccccc1)C(=O)N3)C(=O)N[C@@H]([C@@H](C)CC)C(=O)N[C@H]1CSSC[C@H](NC(=O)[C@H](Cc3ccccc3)NC(=O)CNC(=O)[C@H](CCCNC(=N)N)NC(=O)[C@H]([C@@H](C)O)NC1=O)C(=O)N[C@@H](CCCNC(=N)N)C(=O)N2 [RTD-2] (cyclo(CICTRGFCRCICTRGFCR); disulfide 1-10, 3-8, 12-17) | 6.3 (A405/sec) · 10^−5 | 1.5 | 3.0 | 1.5 | 2.3 | – | reduction of the rate of ONPG hydrolysis on addition of RTD-2 (E. coli ML35 [1]; RTD-2 1.0 μg/ml final added after 30 min to E. coli permeabilized with 1 μg/ml RTD-1, FIG. 11B): approximately 30%; reduction of the rate of ONPG hydrolysis by purified β-galactosidase ([3]; 2 μg/ml, relative to incubations without peptide): 80%
CC[C@H](C)[C@@H]1NC(=O)[C@@H]2CSSC[C@H](NC(=O)[C@H](CCCNC(=N)N)NC(=O)[C@@H](NC(=O)[C@H](Cc3ccccc3)NC(=O)CN)CSSC[C@@H](C(=O)N[C@H](C(=O)N[C@@H](CCCNC(=N)N)C(=O)N[C@@H](CCO)C(=O)O)[C@@H](C)O)NC1=O)C(=O)N[C@@H](CC(C)C)C(=O)N[C@H]1CSSC[C@H](NC(=O)[C@H](C(C)C)NC(=O)CNC(=O)[C@H](CCCNC(=N)N)NC(=O)[C@H](CCCNC(=N)N)NC1=O)C(=O)N[C@@H](CCCNC(=N)N)C(=O)N2 [aRTD-1-Hse] (H-GFCRCLCRRGVCRCICTR[hSer]-OH; disulfide 3-16, 5-14, 7-12 (inferred); N-terminus and C-terminus assumed) | – | – | – | – | – | more antimicrobial than native RTD-1 | –
CC[C@H](C)[C@@H]1NC(=O)[C@@H]2CSSC[C@H](NC(=O)[C@H](CCCNC(=N)N)NC(=O)[C@@H](NC(=O)[C@H](Cc3ccccc3)NC(=O)CN)CSSC[C@@H](C(=O)N[C@H](C(=O)N[C@@H](CCCNC(=N)N)C(=O)O)[C@@H](C)O)NC1=O)C(=O)N[C@@H]([C@@H](C)CC)C(=O)N[C@H]1CSSC[C@H](NC(=O)[C@H](Cc3ccccc3)NC(=O)CNC(=O)[C@H](CCCNC(=N)N)NC(=O)[C@H]([C@@H](C)O)NC1=O)C(=O)N[C@@H](CCCNC(=N)N)C(=O)N2 [aRTD-2-OH] (H-GFCRCICTRGFCRCICTR-OH; disulfide 3-16, 5-14, 7-12; N-terminus assumed) | 4.3 (A405/sec) · 10^−5 | 1.5 | 3.0 | 1.5 | – | – | effect of salt on microbicidal activity (in words) (S. aureus 502a [9]): most inhibited; 99.9% kill against one of the bacterial organisms ([4]; at 8 μg/ml, the highest concentration tested): did not achieve a 99.9% kill; inhibition of bactericidal activity by calcium chloride (E. coli ML35 [7]; physiologic concentration of calcium chloride (1.4 mM)): completely ablated; fold reduction of potency against E. coli versus native cyclic peptide (E. coli ML35 [5]; versus RTD-2): at least 3 fold
CC[C@H](C)[C@@H]1NC(=O)[C@@H]2CSSC[C@H](NC(=O)[C@H](CCCNC(=N)N)NC(=O)[C@@H]3CSSC[C@H](NC1=O)C(=O)N[C@@H]([C@@H](C)O)C(=O)N[C@@H](CCCNC(=N)N)C(=O)NCC(=O)N[C@@H](Cc1ccccc1)C(=O)N3)C(=O)N[C@@H](CC(C)C)C(=O)N[C@H]1CSSC[C@H](NC(=O)[C@H](C(C)C)NC(=O)CNC(=O)[C@H](CCCNC(=N)N)NC(=O)[C@H](CCCNC(=N)N)NC1=O)C(=O)N[C@@H](CCCNC(=N)N)C(=O)N2 [recombinant RTD-1] (cyclo(GFCRCLCRRGVCRCICTR); disulfide 3-16, 5-14, 7-12) | – | – | – | – | – | virtually indistinguishable | –
